One data set is described as follows: in vitro. It counts as in vitro ADME. As to conditions: mouse; 1 mM TAPP1, anterior segments of twelve eyeglobes in 0.5 ml MEM, 37° C.; read-out: half-life of hydrolysis. The method, then:
FIG. 2. In vitro hydrolysis of TAPP1 by anterior segments from mouse eyeglobes. Anterior segments were isolated from twelve wild-type mouse eyeglobes, and cultured in 0.5 ml of MEM media. TAPP1 was added to the culture to a final concentration of 1 mM, and the sample was incubated at 37° C. At 0, 1, 5, 15, 30, 60 and 120 min following incubation, 20 μl aliquot samples were removed from the culture. The aliquots were mixed with equal volume of ice-cold methanol, and incubated on ice for 10 min, followed by centrifugation at 25,000 g to precipitate proteins. TAPP1 content in the supernatant was analyzed by a capillary reverse phase C18 column. The relative quantity of TAPP1 was determined by integration of chromatographic peak area. […] Release of the two products of TAPP1 hydrolysis (designated HP-1 and HP-2) was […] to the rate of TAPP1 hydrolysis (not shown). Corneal esterases may be largely responsible for the hydrolysis of TAPP1.
The compound TAPP1 (C18H24N4O3), MW 344.18, is formulated as described above. A 40 mM solution of TAPP1 is used. […] TAPP content of the supernatant is analyzed by a capillary reverse phase C18 column. […] The relative quantity of the TAPP is determined by area integration of the TAPP elution peak. […] Isoprostanes are measured with a commercially available in vitro assay kit.

The next data set has as its system eyeglobes of mice. The data set is described as follows: Ex vivo lens toxicity test, whole eyeglobes cultured overnight. As to conditions: overnight incubation, media containing 45% β-cyclodextrin, 37° C. The procedure: FIG. 3. Ex vivo lens toxicity test of TAPP1. The eyeglobes of mice (aged 42 days) were cultured overnight either with control solution (media containing 45% β-cyclodextrin) or TAPP1 (TAPP1 in media containing 45% β-cyclodextrin), at 37° C. overnight, and in 95% air/5% CO2. […] To determine the effects of TAPP1 on isolated lenses, intact lenses were dissected from wild-type mouse eyeglobes, and incubated in DMEM media in a 96 well tissue culture plate. Groups of 3-6 lenses were incubated in 200 μl of media alone (negative control), 4% (2-hydroxypropyl)-β-cyclodextrin (carrier control), 8 mM hydrogen peroxide (H2O2, positive control for lens toxicity), 4 mM TAPP1-O (free radical form), 4 mM TAPP1-R (reduced form), and 4 mM of the two products of TAPP1-R hydrolysis (HP-1 and HP-2), respectively. β-cyclodextrin was included as a carrier control because all of the stock solutions contained 45% (2-hydroxypropyl)-β-cyclodextrin. The samples were incubated in 5% CO2 incubator at 37 C for 2 days.
The TAPP compositions are intended for topical delivery to the anterior portion of the eye. […] Morphological or anatomical effects are determined by comparison of TAPP-treated samples to samples incubated with either the TAPP vehicle or samples which are exposed (10 min treatment) to 100% ethanol (a positive control for lens toxicity). […]

The next data set relates to SOD1 mutant mice. The experiment in a line: Fluorescein angiography: hypopigmentation and integrity of retinal vessels in SOD1 mutant mice. It counts as in vivo, mouse. The method, then:
FIG. 10. TAPP1 improves integrity of retinal vessels in SOD1 mutant mice. A late stage pathology which has been documented in SOD1 mutant mice is choroidal neovascularization (CNV). This pathology is detected by fluorescein angiography. In this technique, a fluorescent dye (fluorescein) is injected into mice and the flow of this dye through vessels of the retina is monitored using a specialized fundus camera. Leakage of the dye outside the retinal vessels indicates compromised vessel integrity and/or CNV. SOD1 mutant mice (aged 6 months) which have been administered the TAPP1 vehicle (treatment protocol is described above) show a prominent area of dye leakage in the area surrounding the optic disc (indicated by arrow).
A Zeiss FF3 fundus camera with a camera back containing a barrier filter for fluorescein angiography (FA) is used. Animals are placed in a restraint built onto the fundus camera and injected with 25% sodium fluorescein (0.01 ml in sterile saline per 5-6 gm of body weight, i.p.). Immediately following the injection, a timer on the camera back is engaged so that elapsed time in seconds is recorded for each picture. The fluorescein images are recorded on Fujichrome Velvia RVP 100 color slide film.

Entries after “also recorded” stand apart in the source; their conditions may differ.

A word on the half-life: it is how long it takes for the measured level to halve.

On to `CC1(C)CC(OC(=O)c2cc(-c3ccncc3)n[nH]2)CC(C)(C)N1[O]` [TAPP1, 1-oxyl-2,2,6,6-tetramethylpiperidin-4-yl 3-(pyridin-4-yl)-1H-pyrazole-5-carboxylate], for which the half-life in “in vitro” was about 10 min. The “cataract or other overt toxicity in eyeglobes” value in the data set with eyeglobes of mice is recorded as “no cataract or other overt toxicity”. For the same compound, in the data set with SOD1 mutant mice (SOD1 mutant mice aged 6 months, TAPP1 eye drops versus vehicle), the “fluorescein dye leakage around the optic disc (integrity of retinal vessels)” value is “no dye leakage; also recorded: reduced dye leakage”. Moreover, the severity of hypopigmentation entry with SOD1 mutant mice (SOD mutant mice aged 186 days, TAPP1 eye drops) is “reduces the severity of hypopigmentation”.

(Values after patent publication US20090253745A1, “MODULATORS OF OCULAR OXIDATIVE STRESS” (SIRION THERAPEUTICS, INC., priority 2007, published 2009).)
